The values below come from patent US20160130226A1, “SPIRO-SUBSTITUTED OXINDOLE DERIVATIVES HAVING AMPK ACTIVITY” (BOEHRINGER INGELHEIM INTERNATIONAL GMBH, priority 2013, published 2016).

The target in assay [1] is T1, AMPK beta 1 (Homo sapiens, UniProt Q13131+Q9Y478).
T1 construct: in-cell-ELISA for phospho-ACC (Acetyl-CoA carboxylase 1) in HepG2 cells (liver); endogenous in cells; host or cells: HepG2 (assignment to the beta 1 column inferred)
Nature of the assay: in-cell-ELISA for phospho-ACC: activation of AMPK, beta 1 (HepG2 cells / C2C12 myotubes). Format: cell-based. As to conditions: 2 h, percentage activation over vehicle control; for activation at 1 µM / activation at 3 µM: read-out: Percentage activation of beta 1 at given concentration; for activation at 1 µM / Percentage activation of beta 1 at given concentration: 1 μM. A digest of the protocol:
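HepG2 cells and differentiated C2C12 myotubes treated with compound at 1, 3 or 10 μM for 2 h in serum-free DMEM. Phospho-ACC detected by in-cell ELISA after methanol fixation (HRP secondary, A450), normalized to DNA (Hoechst); expressed as % activation over vehicle control.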
For orientation: An ELISA detects its analyte on a solid surface through an enzyme-linked reagent.

The target of assay [2] is T2, AMPK beta 2 (Mus musculus, UniProt Q6PAM0+Q8BRK8).
T2 construct: fully differentiated myotubes (C2C12 cells) grown in 96 well plate; endogenous in cells; host or cells: C2C12 myotubes (assignment to the beta 2 column inferred)
Nature of the assay: in-cell-ELISA for phospho-ACC: activation of AMPK, beta 2 (HepG2 cells / C2C12 myotubes). The format is cell-based. The note with it: 2 h, percentage activation over vehicle control; for activation at 1 µM / activation at 3 µM: read-out: Percentage activation of beta 2 at given concentration. On the procedure: Activation of AMPK by various compounds were measured using in-cell-ELISA for phospho-ACC (Acetyl-CoA carboxylase 1) in HepG2 cells (liver) and fully differentiated myotubes (C2C12 cells) grown in 96 well plate. Cells were treated with 1 μM, 3 μM or 10 μM of the molecule (Example) for 2 h in serum free DMEM media. After methanol fixation, cells were blocked with BSA followed by addition of anti-phospho ACC antibody (Cell Signaling) and HRP conjugated secondary antibody. Absorbance values taken at 450 nm were normalized with total DNA (Hoechest stain). Results were expressed as percentage activation over vehicle control.
Percentage activation at compound (Example) concentration of 1, 3 or 10 μM for compounds according to the invention are shown in the following table. The number of the compound corresponds to the number of the Example (Ex) in the experimental section.

T1 sequence (Q9Y478 2-270 limits assumed): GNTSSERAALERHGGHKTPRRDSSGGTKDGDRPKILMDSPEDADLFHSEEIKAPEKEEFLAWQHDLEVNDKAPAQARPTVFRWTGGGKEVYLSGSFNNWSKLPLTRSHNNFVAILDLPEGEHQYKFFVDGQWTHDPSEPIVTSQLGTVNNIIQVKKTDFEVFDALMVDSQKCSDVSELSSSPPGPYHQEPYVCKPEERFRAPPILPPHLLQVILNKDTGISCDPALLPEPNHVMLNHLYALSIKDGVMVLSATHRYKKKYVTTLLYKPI
T1 sequence (Q13131 whole entry): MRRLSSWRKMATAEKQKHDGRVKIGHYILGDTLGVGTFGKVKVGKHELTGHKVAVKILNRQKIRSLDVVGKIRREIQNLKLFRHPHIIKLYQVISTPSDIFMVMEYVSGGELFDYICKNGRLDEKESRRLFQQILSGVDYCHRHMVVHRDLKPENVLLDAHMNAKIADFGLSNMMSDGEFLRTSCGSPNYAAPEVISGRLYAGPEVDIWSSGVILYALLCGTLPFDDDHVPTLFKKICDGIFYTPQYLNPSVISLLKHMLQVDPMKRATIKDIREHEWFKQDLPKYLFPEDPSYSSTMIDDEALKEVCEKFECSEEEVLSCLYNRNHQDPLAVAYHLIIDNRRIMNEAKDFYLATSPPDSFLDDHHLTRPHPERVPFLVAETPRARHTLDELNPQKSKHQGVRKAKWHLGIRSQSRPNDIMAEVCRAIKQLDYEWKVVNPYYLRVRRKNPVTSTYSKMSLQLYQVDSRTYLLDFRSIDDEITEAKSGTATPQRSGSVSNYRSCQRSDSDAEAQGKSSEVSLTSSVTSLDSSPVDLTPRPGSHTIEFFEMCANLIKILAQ
T1 sequence (P54619 whole entry partner): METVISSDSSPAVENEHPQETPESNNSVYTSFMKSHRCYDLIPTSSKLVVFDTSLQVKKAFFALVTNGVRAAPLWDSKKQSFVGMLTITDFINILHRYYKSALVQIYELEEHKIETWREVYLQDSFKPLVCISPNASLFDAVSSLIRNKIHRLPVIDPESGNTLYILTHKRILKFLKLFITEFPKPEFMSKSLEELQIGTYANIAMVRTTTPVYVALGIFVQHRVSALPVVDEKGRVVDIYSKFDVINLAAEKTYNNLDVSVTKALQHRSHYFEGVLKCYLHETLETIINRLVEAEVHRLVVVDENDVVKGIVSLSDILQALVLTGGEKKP
T2 sequence (Q6PAM0 whole entry): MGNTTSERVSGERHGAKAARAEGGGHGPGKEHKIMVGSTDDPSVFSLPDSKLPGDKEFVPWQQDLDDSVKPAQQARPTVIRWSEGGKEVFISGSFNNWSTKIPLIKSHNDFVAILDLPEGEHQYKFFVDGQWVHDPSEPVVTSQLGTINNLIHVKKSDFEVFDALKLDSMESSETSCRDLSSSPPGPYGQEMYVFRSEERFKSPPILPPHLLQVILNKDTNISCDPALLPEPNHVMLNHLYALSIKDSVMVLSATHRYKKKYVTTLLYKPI
T2 sequence (Q8BRK8 whole entry): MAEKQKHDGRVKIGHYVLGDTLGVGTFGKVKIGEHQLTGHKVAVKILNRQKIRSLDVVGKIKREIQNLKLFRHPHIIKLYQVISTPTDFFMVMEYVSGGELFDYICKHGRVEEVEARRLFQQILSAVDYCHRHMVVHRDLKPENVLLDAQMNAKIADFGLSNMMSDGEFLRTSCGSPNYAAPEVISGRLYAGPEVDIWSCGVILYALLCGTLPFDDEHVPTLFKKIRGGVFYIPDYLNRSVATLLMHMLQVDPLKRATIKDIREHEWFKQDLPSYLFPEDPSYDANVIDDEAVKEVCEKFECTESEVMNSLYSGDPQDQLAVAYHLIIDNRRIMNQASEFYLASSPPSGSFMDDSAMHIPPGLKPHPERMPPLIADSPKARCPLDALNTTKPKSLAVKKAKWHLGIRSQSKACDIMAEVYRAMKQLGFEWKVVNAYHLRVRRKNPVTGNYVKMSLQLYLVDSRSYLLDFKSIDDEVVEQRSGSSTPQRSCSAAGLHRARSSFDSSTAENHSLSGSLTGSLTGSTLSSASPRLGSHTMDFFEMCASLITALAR
T2 sequence (O54950 whole entry partner): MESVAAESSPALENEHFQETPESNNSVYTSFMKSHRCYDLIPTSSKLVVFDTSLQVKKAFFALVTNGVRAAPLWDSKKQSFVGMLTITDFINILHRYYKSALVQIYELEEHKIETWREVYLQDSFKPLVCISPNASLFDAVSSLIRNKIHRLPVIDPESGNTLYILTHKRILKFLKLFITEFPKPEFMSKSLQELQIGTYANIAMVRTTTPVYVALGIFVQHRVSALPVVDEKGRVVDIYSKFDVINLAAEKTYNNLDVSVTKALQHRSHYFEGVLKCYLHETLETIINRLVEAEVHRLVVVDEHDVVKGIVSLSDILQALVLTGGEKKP

On to `Cc1ccc(C2CC23C(=O)Nc2cc(F)c(-c4ccc(-c5ccccc5O)cc4)cc23)cc1CO` (stereo not drawn) [Example 190], for which the activation at 1 µM in assay [1] worked out at 121%; in assay [2] (1 μM), 94%.
With `Cc1ccc(C2CC23C(=O)Nc2cc(Cl)c(-c4ccc(-c5ccncc5)cc4)cc23)cc1C(=O)O` (stereo not drawn) [Example 60], the activation at 1 µM in assay [1] was 66%. Besides, the activation at 3 µM in assay [2] stood at 105%.
In the case of `Cc1ccc(C2CC23C(=O)Nc2c3cc(-c3ccc(-c4ccc(-n5cncn5)cc4)cc3)c(Cl)c2Cl)cc1C(=O)O` (stereo not drawn) [Example 149], the results for the activation at 1 µM in assay [1] and in assay [2] (1 μM) were 26% and 62%, respectively.
Consider `CCN1C(=O)C2(CC2c2ccc(C)c(C(=O)O)c2)c2cc(-c3ccc(-c4ccncc4)cc3)c(Cl)cc21` (stereo not drawn) [Example 103], for which the activation at 3 µM in assay [1] came out at 74%; in assay [2], 2%.
`COc1ccc(C2CC23C(=O)Nc2cc(Cl)c(-c4ccc(-c5ccc(-n6cncn6)cc5)cc4)cc23)cc1C(=O)O` (stereo not drawn) [Example 128]: in assay [1], the activation at 1 µM was found to be 66%. Moreover, the activation at 3 µM in assay [2] was found to be 198%.
Consider `COc1ccc(C2CC23C(=O)Nc2cc(Cl)c(-c4ccc(-c5ccc(-n6ccnn6)cc5)cc4)cc23)cc1C(=O)O` (stereo not drawn) [Example 139], for which the activation at 3 µM in assay [1] amounted to 85%. Further, the activation at 1 µM in assay [2] (1 μM) stood at 283%.
For `Cc1ccc(C2CC23C(=O)Nc2cc(F)c(-c4ccc(-c5ccc(-n6cncn6)cc5)cc4)cc23)cc1C(=O)O` (stereo not drawn) [Example 145], the “Percentage activation of beta 1 at given concentration” value in assay [1] worked out at 67% at 1 μM. For the same molecule, the “Percentage activation of beta 2 at given concentration” value in assay [2] (1 μM) was found to be 138% at 1 μM.
As for `COc1ccc(C2CC23C(=O)Nc2cc(Cl)c(-c4ccc(-c5ccccc5O)cc4)cc23)cc1CC(=O)O` (stereo not drawn) [Example 25], the activation at 1 µM in assay [1] was 62%. Besides, in assay [2], the activation at 3 µM came out at 101%.
As for `Cc1ccc(C2CC23C(=O)Nc2cc(Cl)c(-c4ccc(-c5ccc(-n6cccn6)cc5)cc4)cc23)cc1C(=O)O` (stereo not drawn) [Example 114], the activation at 1 µM in assay [1] was determined as 79%. The activation at 3 µM in assay [2] turned out to be 57%.
For `Cc1ccc(C2CC23C(=O)N(CC2CC2)c2cc(Cl)c(-c4ccc(-c5ccncc5)cc4)cc23)cc1C(=O)O` (stereo not drawn) [Example 107] the same measures were 94% and 65%.
Regarding `COc1ccc(C2CC23C(=O)Nc2cc(F)c(-c4ccc(-c5ccc(-n6cccn6)cc5)cc4)cc23)cc1CC(=O)O` (stereo not drawn) [Example 176], the activation at 1 µM in assay [1] was found to be 91%; in assay [2] (1 μM), 126%.
In the same order, the values of `CCc1ccc(C2CC23C(=O)Nc2cc(Cl)c(-c4ccc(-c5ccc(-n6cncn6)cc5)cc4)nc23)cc1C(=O)O` (stereo not drawn) [Example 133] are 49% and 36%.
In the same order, the values of `Cc1ccc(C2CC23C(=O)Nc2cc(Cl)c(-c4ccc(-c5ccc(-n6cccn6)cc5)cc4)nc23)cc1C(=O)O` (stereo not drawn) [Example 138] are 72% and 173%.
With `Cc1ccc(C2CC23C(=O)Nc2cc(Cl)c(-c4ccc(-c5ccc(-n6cncn6)cc5)cc4)cc23)cc1C(=O)O` (stereo not drawn) [Example 115], the “Percentage activation of beta 1 at given concentration” value in assay [1] came out at 132% at 1 μM. In assay [2] (1 μM), the activation at 1 µM is 114%.
For `COc1ccc(C2CC23C(=O)N(C)c2cc(Cl)c(-c4ccc(-c5ccccc5O)cc4)cc23)cc1CC(=O)O` (stereo not drawn) [Example 35], the activation at 3 µM in assay [1] came to 27%; in assay [2] it was 23%.
Take `CC(C)(C(=O)O)c1ccc(C2CC23C(=O)Nc2cc(F)c(-c4ccc(-c5ccc(-n6cccn6)cc5)cc4)cc23)cc1` (stereo not drawn) [Example 158]: the activation at 1 µM in assay [1] turned out to be 78%; in assay [2] (1 μM), 38%.
As for `Cc1ccc(C2CC23C(=O)Nc2cc(Cl)c(-c4ccc(-c5ccc(-n6ccnc6C)cc5)cc4)cc23)cc1C(=O)O` (stereo not drawn) [Example 150], the activation at 1 µM in assay [1] amounted to 18%; in assay [2] (1 μM), 81%.
Consider `Cc1ccc(C2CC23C(=O)N(C)c2cc(Cl)c(-c4ccc(-c5ccncc5)cc4)cc23)cc1C(=O)O` (stereo not drawn) [Example 101], for which the activation at 1 µM in assay [1] came out at 103%. The activation at 3 µM in assay [2] stood at 46%.
